Carcinogen call data for eight compounds are collected here from PubChem BioAssay AID1259411 (Chemical Carcinogenesis Research Information System (CCRIS), 2018).

Active and inactive are the calls of the source. No rule for the calls is given here.

For the data set, the system named is rodent carcinogenicity bioassays, tumor incidence. The data set is described as follows: CCRIS carcinogenicity studies. The following applies: Dose: 0, Dose: 0. Put shortly: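 Archive of carcinogenicity, mutagenicity, tumor promotion and tumor inhibition results drawn from journals, NCI reports and other sources, expert-reviewed; covers 1985-2011 and is no longer updated.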

Turning to `[CH3][Hg][Cl]`, the carcinogen call by setting is: (Species: MOUSE, Strain/Sex: B6C3F1/FEMALE, Route: ORAL, 0.4, 2, 10 PPM IN DIET FOR 104 WK (STUDY DURATION: 104 WK), 0.4, 2, 10 PPM IN DIET FOR 104 WK (STUDY DURATION: 104 WK)) “inactive; negative”; (Species: MOUSE, Strain/Sex: B6C3F1/MALE, Route: ORAL, 0.4, 2, 10 PPM IN DIET FOR 104 WK (STUDY DURATION: 104 WK), 0.4, 2, 10 PPM IN DIET FOR 104 WK (STUDY DURATION: 104 WK), Tumor Site: Type of Lesion: KIDNEY: CARCINOMA, ADENOMA) “active; positive”; (Species: MOUSE, Strain/Sex: ICR/FEMALE, Route: ORAL, 0.4, 2, 10 PPM IN DIET FOR 104 WK (STUDY DURATION: 104 WK), 0.4, 2, 10 PPM IN DIET FOR 104 WK (STUDY DURATION: 104 WK)) “inactive; negative”; (Species: MOUSE, Strain/Sex: ICR/FEMALE, Route: ORAL, 10 PPM IN BASAL DIET ADMINISTERED TO SPAYED MICE FOR 80 WK (STUDY DURATION: 80 WK)) “inactive; negative”; (Species: MOUSE, Strain/Sex: ICR/FEMALE, Route: ORAL, 10 PPM IN BASAL DIET FOR 80 WK (STUDY DURATION: 80 WK)) “inactive; negative”; (Species: MOUSE, Strain/Sex: ICR/FEMALE, Route: ORAL, 15 PPM IN DIET FOR 78 WK (STUDY DURATION: 78 WK)) “inactive; negative”. The carcinogen call runs as follows: (Species: MOUSE, Strain/Sex: ICR/MALE, Route: ORAL, 0.4, 2, 10 PPM IN DIET FOR 104 WK (STUDY DURATION: 104 WK), 0.4, 2, 10 PPM IN DIET FOR 104 WK (STUDY DURATION: 104 WK), Tumor Site: Type of Lesion: KIDNEY: ADENOCARCINOMA) “active; positive”; (Species: MOUSE, Strain/Sex: ICR/MALE, Route: ORAL, 10 PPM IN BASAL DIET ADMINISTERED TO CASTRATED MICE FOR 80 WK (STUDY DURATION: 80 WK)) “inactive; negative”; (Species: MOUSE, Strain/Sex: ICR/MALE, Route: ORAL, 10 PPM IN BASAL DIET FOR 80 WK (STUDY DURATION: 80 WK), Tumor Site: Type of Lesion: KIDNEY: ADENOCARCINOMA) “active; positive”; (Species: MOUSE, Strain/Sex: ICR/MALE, Route: ORAL, 15 PPM IN DIET FOR 78 WK (STUDY DURATION: 78 WK), Tumor Site: Type of Lesion: KIDNEY: ADENOCARCINOMA, ADENOMA) “active; positive”; (Species: RAT, Strain/Sex: SPRAGUE-DAWLEY/FEMALE, Route: ORAL, 0.4, 2, 10 PPM IN DIET FOR 130 WK (STUDY DURATION: 130 WK), 0.4, 2, 10 PPM IN DIET FOR 130 WK (STUDY DURATION: 130 WK)) “inactive; negative”; (Species: RAT, Strain/Sex: SPRAGUE-DAWLEY/MALE, Route: ORAL, 0.4, 2, 10 PPM IN DIET FOR 130 WK (STUDY DURATION: 130 WK), 0.4, 2, 10 PPM IN DIET FOR 130 WK (STUDY DURATION: 130 WK)) “inactive; negative”.

`CCOP(=O)(NC(C)C)Oc1ccc(SC)c(C)c1` (centres undefined): the carcinogen call is “inactive; negative” (Species: Mouse, Strain/Sex: CD-1/Female (50/Group), Route: Oral, 2, 10, 50 ppm of 89.2-90.5% fenamiphos in diet for 20 mo, study duration 20 mo, 2, 10, 50 ppm of 89.2-90.5% fenamiphos in diet for 20 mo, study duration 20 mo); “inactive; negative” (Species: Mouse, Strain/Sex: CD-1/Male (50/Group), Route: Oral, 2, 10, 50 ppm of 89.2-90.5% fenamiphos in diet for 20 mo, study duration 20 mo, 2, 10, 50 ppm of 89.2-90.5% fenamiphos in diet for 20 mo, study duration 20 mo); “inactive; negative” (Species: Rat, Strain/Sex: Strain not specified/Female (50/Group), Route: Oral, 2, 10, 50 ppm Nemacure (89% fenamiphos) in diet for 2 yr, study duration 2 yr, 2, 10, 50 ppm Nemacure (89% fenamiphos) in diet for 2 yr, study duration 2 yr); “inactive; negative” (Species: Rat, Strain/Sex: Strain not specified/Male (50/Group), Route: Oral, 2, 10, 50 ppm Nemacure (89% fenamiphos) in diet for 2 yr, study duration 2 yr, 2, 10, 50 ppm Nemacure (89% fenamiphos) in diet for 2 yr, study duration 2 yr).

Take `CCCCCC[C@@H](O)C/C=C\CCCCCCCC(=O)O` (tested in a mixture with another compound): the carcinogen call (Species: MOUSE, Strain/Sex: C57BL/FEMALE, Route: ORAL, 5% IN DIET FOR 80 WKS (STUDY DURATION: 80 WKS)) is “inactive; negative”; the carcinogen call (Species: MOUSE, Strain/Sex: C57BL/MALE, Route: ORAL, 5% IN DIET FOR 80 WKS (study duration: 80 WKS)) is “inactive; negative”; the carcinogen call (Species: RAT, Strain/Sex: WISTAR/FEMALE, Route: ORAL, 5% IN DIET FOR 2 YR (STUDY DURATION: 2 YR)) was “inactive; negative”; the carcinogen call (Species: RAT, Strain/Sex: WISTAR/MALE, Route: ORAL, 5% IN DIET FOR 2 YR (STUDY DURATION: 2 YEARS)) was “inactive; negative”.

With `CN(N=O)C(=O)Oc1cccc2ccccc12`, for the setting “Species: MOUSE, Strain/Sex: CFLP/FEMALE, Route: DERMAL, 12.5, 50, 200 UG IN ACETONE 2 D/WK FOR 104 WK (STUDY DURATION: 24 MO), 12.5, 50, 200 UG IN ACETONE 2 D/WK FOR 104 WK (STUDY DURATION: 24 MO), Tumor Site: Type of Lesion: SKIN: CARCINOMA”, the carcinogen call was “active; positive”.

Turning to `c1ccc2c(c1)ccc1cc3c4c(ccc3cc12)CCCC4`, the carcinogen call (Species: MOUSE, Strain/Sex: SWISS/FEMALE, Route: DERMAL, 32 UG AS 0.2% SOLUTION IN ACETONE APPLIED TO INTERSCAPULAR REGION 2/WK FOR 50 WK (STUDY DURATION: 60 WK), Tumor Site: Type of Lesion: SKIN: CARCINOMA) was “active; positive”.

For the compound `CCC1c2ccc(O)cc2C(C)C1c1ccc(O)cc1` (centres undefined), the carcinogen call (Species: HAMSTER, Strain/Sex: SYRIAN/MALE, Route: SUBCUTANEOUS IMPLANT, 20 MG IN PELLETS IMPLANTED EVERY 2.5 MO FOR 9 MO (STUDY DURATION: 9 MO)) is “inactive; negative”.

Take `Cc1ccnc2ccccc12`: the carcinogen call by setting is: (Species: MOUSE, Strain/Sex: CD-1/FEMALE, Route: INTRAPERITONEAL, 0.25, 0.5, 1.0 UMOL IN DMSO TO NEWBORN MICE ON DAYS 1, 8 AND 15 OF LIFE RESPECTIVELY (TOTAL DOSE: 1.75 UMOL) (STUDY D, 0.25, 0.5, 1.0 UMOL IN DMSO TO NEWBORN MICE ON DAYS 1, 8 AND 15 OF LIFE RESPECTIVELY (TOTAL DOSE: 1.75 UMOL) (STUDY D) “inactive; negative”; (Species: MOUSE, Strain/Sex: CD-1/MALE, Route: INTRAPERITONEAL, 0.25, 0.5, 1.0 UMOL IN DMSO TO NEWBORN MICE ON DAY 1,8 AND 15 OF LIFE RESPECTIVELY (TOTAL DOSE: 1.75 UMOL) (STUDY DUR, 0.25, 0.5, 1.0 UMOL IN DMSO TO NEWBORN MICE ON DAY 1,8 AND 15 OF LIFE RESPECTIVELY (TOTAL DOSE: 1.75 UMOL) (STUDY DUR, Tumor Site: Type of Lesion: LIVER: ADENOMA, HEPATOMA) “active; positive”; (Species: RAT, Strain/Sex: SPRAGUE-DAWLEY/FEMALE, Route: SUBCUTANEOUS, 200 UMOL/KG INTO SUPRASCAPULAR REGION ON DAY 1 OF LIFE FOLLOWED BY 0, 100 UMOL 1/WK AT WK 2-7 THEN 0, 200 UMOL ONCE A, 200 UMOL/KG INTO SUPRASCAPULAR REGION ON DAY 1 OF LIFE FOLLOWED BY 0, 100 UMOL 1/WK AT WK 2-7 THEN 0, 200 UMOL ONCE A) “inactive; negative”; (Species: RAT, Strain/Sex: SPRAGUE-DAWLEY/MALE, Route: SUBCUTANEOUS, 200 UMOL/KG INTO SUPRASCAPULAR REGION ON DAY 1 OF LIFE FOLLOWED BY 0, 100 UMOL 1/WK AT WK 2-7 THEN 0, 200 UMOL ONCE A, 200 UMOL/KG INTO SUPRASCAPULAR REGION ON DAY 1 OF LIFE FOLLOWED BY 0, 100 UMOL 1/WK AT WK 2-7 THEN 0, 200 UMOL ONCE A) “inactive; negative”.

Turning to `CCNN`, the carcinogen call (Species: MOUSE, Strain/Sex: SWISS/FEMALE, Route: ORAL, 0.0125% IN DRINKING WATER FOR LIFE FOR AN AVERAGE DAILY DOSE OF 0, 0.92 MG (STUDY DURATION: 130 WK), 0.0125% IN DRINKING WATER FOR LIFE FOR AN AVERAGE DAILY DOSE OF 0, 0.92 MG (STUDY DURATION: 130 WK), Tumor Site: Type of Lesion: LUNG: ADENOMA OR ADENOCARCINOMA, BLOOD VESSEL: ANGIOSARCOMA OR ANGIOMA) is “active; positive” and the carcinogen call (Species: MOUSE, Strain/Sex: SWISS/MALE, Route: ORAL, 0.0125% IN DRINKING WATER FOR LIFE FOR AN AVERAGE DAILY DOSE OF 0, 1.52 MG (STUDY DURATION: 130 WK), 0.0125% IN DRINKING WATER FOR LIFE FOR AN AVERAGE DAILY DOSE OF 0, 1.52 MG (STUDY DURATION: 130 WK), Tumor Site: Type of Lesion: LUNG: ADENOMA OR ADENOCARCINOMA, BLOOD VESSEL: ANGIOSARCOMA OR ANGIOMA) was “active; positive”.
